# Data: patent US9221746B2, “Homo- and hetero-polyamino-acid derivatives of fullerene C60, method for producing same, and pharmaceutical compositions based on said derivatives” (priority 2011, dated 2015)
# Where two headings read alike, the source gives them in different places. Marks after values point to notes of the source that are not given here.
# What was measured:
# [1] = test system: L1210 leukemia; type: in vivo, mice; settings: for ILT, %: increase in lifetime compared to the control; for Average body weight gain, M ± m / Percent inhibition relative to control / Average weight gain, M ± m: ascite development
# Experimental: (§1) These studies were carried out at the Institute for Toxicology, St. Petersburg, 2006, according to “Guidelines for the Study of Antitumor Activity of Pharmacological Agents” (“Manual on Experimental (Preclinical) Study of New Pharmacological Agents,” Ministry of Public Health of the Russian Federation, Remedium, Moscow, 2000, pp. 319-325).
# (§2) The L1210 leukemia, breast adenocarcinoma Ca-755, and Lewis carcinoma (3LL) tumor cell strain were purchased from the Petrov Research Institute for Oncology, the Ministry of Public Health of the Russian Federation (St. Petersburg).
# DBA/2 line mice with transplanted L1210 leukemia cells. Mouse ages: 6 to 8 weeks; body weights: 19 to 25 g.
# (§3) The antitumor effect was ascertained through the following parameters: • ascite accumulation as animal body weight gain; • the lifetime of animals; and • tumor growth. The larger dimension of the tumor (length) and the smaller dimension normal thereto (width) were measured. The tumor volume was calculated, and the inhibition of tumor growth was calculated by a formula. The ascertainment criterion was the day when each individual tumor reached a volume of 500 mm^3.
# During the experiment, the animals were weighed daily with the goal of evaluating ascite accumulation and studying the agents compared on this process.
# [2] = test system: Herpes simplex virus, type 1, Lg strain; experiment: Anti-herpetic activity in the Vero cell culture; type: cell-based; settings: for Optical density: MTT assay
# [3] = test system: breast adenocarcinoma Ca-755; type: in vivo, mice; settings: 100 mg/kg
# Experimental: as §1, §2
# C 57 BL/6J line male mice with transplanted Ca-755 cells. Mouse ages: 6 to 8 weeks; body weights: 19 to 25 g.
# as §3
substance,measurement,setting,value
Fullerene Poly(Aminocaproic Acid) of Formula C60(H3){NH(CH2)5COO—}3{NH3^+(CH2)5COOH}3 [Agent No. 1],"ALT in days, M ± m",[1]; 100 mg/kg,10.7 ± 37 days
same,"ILT, %",[1]; 100 mg/kg,78.33%
same,"ALT in days, M ± m","[1]; 100 mg/kg, listed as agent",10.7 ± 0.37 days
same,average lifetime,[1]; 200 mg/kg,10.60 ± 0.37 days
same,percent increase in lifetime compared to the control,[1]; 200 mg/kg,76.67%
same,"ALT in days, M ± m",[1]; 250 mg/kg,10.60 ± 37 days
same,factor by which average body weight gain is lower at 250 mg/kg than at 100 mg/kg,[1]; 250 mg/kg versus 100 mg/kg,1.5
same,"ILT, %",[1]; 250 mg/kg,76.67%
same,"Average body weight gain, M ± m","[1]; 100 mg/kg, day 1",0.3 ± 0.2
same,"Average body weight gain, M ± m","[1]; 100 mg/kg, day 2",0.8 ± 0.4
same,"Average body weight gain, M ± m","[1]; 100 mg/kg, day 3",2.5 ± 0.5
same,Percent inhibition relative to control,"[1]; 100 mg/kg, day 3",50.0%*
same,"Average body weight gain, M ± m","[1]; 100 mg/kg, day 4",4.2 ± 1.0
same,Percent inhibition relative to control,"[1]; 100 mg/kg, day 4",63.2%*
same,"Average body weight gain, M ± m","[1]; 100 mg/kg, day 5",8.4 ± 1.2
same,Percent inhibition relative to control,"[1]; 100 mg/kg, day 5",48.5%*
same,"Average body weight gain, M ± m","[1]; 100 mg/kg, day 6",12.1 ± 2.1
same,Percent inhibition relative to control,"[1]; 100 mg/kg, day 6",42.9%*
same,"Average body weight gain, M ± m","[1]; 100 mg/kg, day 7",14.2 ± 2.2
same,Percent inhibition relative to control,"[1]; 100 mg/kg, day 7",46.0%*
same,"Average weight gain, M ± m","[1]; 250 mg/kg, day 1",0.3 ± 0.1
same,"Average weight gain, M ± m","[1]; 250 mg/kg, day 2",0.5 ± 0.3
same,"Average weight gain, M ± m","[1]; 250 mg/kg, day 3",1.1 ± 0.4
same,Percent inhibition relative to control,"[1]; 250 mg/kg, day 3",78.0%*
same,"Average weight gain, M ± m","[1]; 250 mg/kg, day 4",2.8 ± 0.9
same,Percent inhibition relative to control,"[1]; 250 mg/kg, day 4",75.4%*
same,"Average weight gain, M ± m","[1]; 250 mg/kg, day 5",4.7 ± 1.2
same,Percent inhibition relative to control,"[1]; 250 mg/kg, day 5",71.2%*
same,"Average weight gain, M ± m","[1]; 250 mg/kg, day 6",8.4 ± 1.6
same,Percent inhibition relative to control,"[1]; 250 mg/kg, day 6",60.4%*
same,"Average weight gain, M ± m","[1]; 250 mg/kg, day 7",10.0 ± 1.3
same,Percent inhibition relative to control,"[1]; 250 mg/kg, day 7",62.0%*
same,intoxication signatures,"[1]; mouse, in vivo",No intoxication signatures were detected
same,protection of cells from the cytodestructive effect of the virus,"[2]; 100 TCD50, agent 60 minutes prior to infecting, all concentrations from 5.0 mcg/mL and higher",completely protects
same,protection of cell culture from the cytodestructive effect of the virus,"[2]; 1000 TCD50/0.2 mL, infected 60 minutes post inserting the agent",complete protection
same,Optical density,"[2]; 100 TCD50, 5.0 mcg/mL",1.110 ± 0.08
same,Optical density,"[2]; 100 TCD50, 10.0 mcg/mL",1.015 ± 0.07
same,Optical density,"[2]; 100 TCD50, 50.0 mcg/mL",1.153 ± 0.06
same,Optical density,"[2]; 100 TCD50, 100.0 mcg/mL",1.79 ± 0.05
same,Optical density,"[2]; 1000 TCD50, 5.0 mcg/mL",1.027 ± 0.04
same,Optical density,"[2]; 1000 TCD50, 10.0 mcg/mL",1.021 ± 0.04
same,Optical density,"[2]; 1000 TCD50, 50.0 mcg/mL",1.033 ± 0.03
same,Optical density,"[2]; 1000 TCD50, 100.0 mcg/mL",1.083 ± 0.01
same,"ALT in days, M ± m",[3],71.9 ± 2.58 days
